Article PMC3288053 (PLoS ONE, 2012)
pIC50: −log10 of the molar value.

What was measured:
[1] = target: interaction of RXRα with SRC1 (Homo sapiens, UniProt P19793); assay: Yeast two-hybrid assay; details: AH109 strain, 48 hours
[2] = target: T1, PTP1B (D48A) (Homo sapiens, UniProt P18031, D48A); assay: PTP enzyme inhibition assay, D48A mutant; type: biochemical
T1 construct: pGEX4T-1-PTP1B1–321; GST (N); made in house; host or cells: E. coli (BL21 (DE3) stated for the wild-type plasmid)
Protocol: The plasmid pGEX4T1-PTP1B (D48A) is generated by site-directed mutagenesis with pGEX4T1-PTP1B (WT) as template. The primer pairs are sense: 5′-[…]-3′ and antisense: 5′-[…]-3′.
The enzymatic activities of the recombinant PTPs are measured at 25°C using pNPP as substrate. The initial velocities of enzymatic reactions are determined by continuously measuring the absorbance at 405 nm every 15 s using a microplate spectrophotometer (Bio-Rad). […] To determine the inhibition type, each concentration of Rut (0, 50 and 75 µM) is incubated with PTP1B (0.3 µM) in reaction buffer (50 mM HEPES, pH7.0, 1 mM EDTA, and 100 mM NaCl) for 10 min and the reactions are initiated by different concentrations of pNPP (0.5–10 mM). The inhibition type is determined using double-reciprocal plots. In determination of the selectivity of Rut against PTPs, the result is referred as no inhibition when 100 µM Rut inhibits no enzyme activity. The same reaction systems are designed for all PTPs including PTP1B.

[3] = test system: 3T3-L1 adipocytes; assay: GLUT4 translocation by immunofluorescence in 3T3-L1 adipocytes; type: cell-based; details: Rut 20 µM, insulin 17 nM
Protocol: For GLUT4 translocation assay in 3T3-L1 adipocytes, the cells are fully differentiated (the 10th day after MDI stimulation), and seeded onto 24-well plates. After cultured in serum-free medium for 8 h, cells are incubated with Rut for 2 h and insulin for 10 min, and then rinsed with PBS, fixed with 4% formaldehyde for 10 min, and permeated with 0.2% Triton X-100 in PBS for 10 min. Cells are subsequently washed with PBS and 3% bovine serum albumin for 20 min, and sequentially incubated with primary antibody (Abcam GLUT4 antibody) for 1 h and secondary antibody (Alexa Fluor 488 conjuncted anti-mouse antibody) for another 1 h. Finally, the glass-slips are washed with PBS for examination using OLYMPUS FV-1000 confocal microscope. All pictures are made in the same time experiment.

T1 sequence (P18031 1-321 D48A): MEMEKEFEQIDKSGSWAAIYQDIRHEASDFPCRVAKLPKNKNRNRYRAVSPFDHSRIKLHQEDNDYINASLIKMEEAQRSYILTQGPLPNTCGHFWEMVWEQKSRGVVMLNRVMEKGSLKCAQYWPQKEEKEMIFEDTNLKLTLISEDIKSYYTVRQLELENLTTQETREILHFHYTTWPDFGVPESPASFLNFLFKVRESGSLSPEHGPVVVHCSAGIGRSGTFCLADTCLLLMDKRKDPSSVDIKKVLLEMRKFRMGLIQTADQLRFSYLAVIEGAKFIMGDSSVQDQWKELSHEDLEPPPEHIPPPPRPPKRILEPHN
Chain of interaction of RXRα with SRC1 (P19793 223-462 limits assumed): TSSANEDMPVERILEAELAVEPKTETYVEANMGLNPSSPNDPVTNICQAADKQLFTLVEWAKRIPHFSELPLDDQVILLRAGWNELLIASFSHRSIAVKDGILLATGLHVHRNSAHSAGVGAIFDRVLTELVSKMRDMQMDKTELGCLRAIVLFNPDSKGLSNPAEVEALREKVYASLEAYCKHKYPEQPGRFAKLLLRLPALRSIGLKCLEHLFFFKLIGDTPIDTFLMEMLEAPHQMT
Chain of interaction of RXRα with SRC1 (Q15788 613-773 partner limits assumed): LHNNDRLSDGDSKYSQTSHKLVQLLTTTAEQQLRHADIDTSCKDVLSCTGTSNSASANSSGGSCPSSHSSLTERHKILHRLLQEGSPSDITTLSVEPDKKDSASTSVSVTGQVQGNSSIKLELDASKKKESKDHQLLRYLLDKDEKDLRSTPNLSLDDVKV

C=CC(C)(C)c1cc2cc3c(cc2oc1=O)O[C@H](C(C)(C)OC(C)=O)C3 [(+)-Rutamarin]
interaction of SRC1 with RXRα (α-galactosidase activity) [1]: dose-dependently enhances | pIC50 [2]: 4.83 | GLUT4 translocation in fully differentiated 3T3-L1 adipocytes [3]: significantly induces
